These results are taken from ChEMBL document CHEMBL1201862, “PubChem BioAssay data set” (2004).

Test systems include A498; A549; CAKI-1; HCT-15; HOP-92; K562; MCF7; MOLT-4; Malme-3M; NCI-H23; NCI/ADR-RES; RXF 393; SF-539; SK-MEL-28; SK-MEL-2; SK-MEL-5; SK-OV-3; SNB-19; SNB-75; SNB-78.
Common to all, as to assay: NCI-60 cell line screen, 48 h

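The compound was tested at five concentrations on cells cultured in 96-well plates, with a 48-hour exposure period. GI50 marks 50% less growth.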 The source made the active and inactive calls. No stated cut-off is given here; in the data, active = GI50 up to about 1.1 µM and inactive = higher.

On to `C/C=C/C1=C(Cl)C(=O)[C@@H](Cl)[C@@]1(O)C(=O)OC` [(+)-CRYPTOSPORIPSIN], for which the GI50 in the assay with A498 is 5.77 µM (inactive); with A549, 9.86 µM (inactive); in the assay on CAKI-1, 2.39 µM (inactive); with HCT-15, 1730 nM; in the assay with HOP-92, 2.25 µM (inactive); with K562, 869 nM (active). Moreover, the GI50 in the assay with MCF7 was 1.48 µM (inactive); in the assay with MOLT-4, 3.66 µM (inactive); in the assay with Malme-3M, 2 µM (inactive); with NCI-H23 it was 4.08 µM (inactive); in the assay on NCI/ADR-RES, 2.15 µM (inactive); in the assay on RXF 393, 2.13 µM (inactive). The GI50 with SF-539 is 2.19 µM (inactive); with SK-MEL-28, 7.66 µM (inactive); in the assay on SK-MEL-2, 2.72 µM (inactive); in the assay on SK-MEL-5 it was 5.73 µM (inactive); in the assay on SK-OV-3, 15.1 µM (inactive); in the assay on SNB-19, 3.8 µM (inactive). Also, the GI50 is 7.38 µM (inactive) in the assay on SNB-75 and 5.18 µM (inactive) in the assay with SNB-78.
